Calls of active or inactive are those of the source. The calls are words filed in the database; no cut-off is given here.
Tests used:
[1] = MRT (0 to t) in Sprague-Dawley rat at 2 mg/kg,iv administration measured for 0.25 to 24 hrs by LC-MS/MS analysis; assay type: ADME, organism-based; conditions: in vivo, time 0.25-24 hrs
[2] = MRT (0 to infinity) in Sprague-Dawley rat at 2 mg/kg,iv administration measured for 0.25 to 24 hrs by LC-MS/MS analysis; assay type: ADME, organism-based; conditions: in vivo, time 0.25-24 hrs
[3] = target: Cyclin-dependent kinase 2 (Homo sapiens, UniProt P24941); assay: Inhibition of CDK2 (unknown origin)
[4] = target: Cyclin-dependent kinase 4 (Homo sapiens, UniProt P11802); assay: Inhibition of CDK4 (unknown origin)
[5] = Half life in human liver microsomes at 100 uM measured upto 60 mins in presence of NADPH by LC-MS/MS analysis; assay type: ADME, Microsome
[6] = Tmax in Sprague-Dawley rat at 2 mg/kg,iv administration measured for 0.25 to 24 hrs by LC-MS/MS analysis; assay type: ADME, organism-based; conditions: in vivo, time 0.25-24 hrs
[7] = Cmax in Sprague-Dawley rat at 2 mg/kg,iv administration measured for 0.25 to 24 hrs by LC-MS/MS analysis; assay type: ADME, organism-based; conditions: in vivo, time 0.25-24 hrs
[8] = C0 in Sprague-Dawley rat at 2 mg/kg,iv administration measured for 0.25 to 24 hrs by LC-MS/MS analysis; assay type: ADME, organism-based; conditions: in vivo, time 0.25-24 hrs
[9] = AUC (0 to t) in Sprague-Dawley rat at 2 mg/kg,iv administration measured for 0.25 to 24 hrs by LC-MS/MS analysis; assay type: ADME, organism-based; conditions: in vivo, time 0.25-24 hrs
[10] = Bioavailability in Sprague-Dawley rat at 2 mg/kg,iv administration measured for 0.25 to 24 hrs by LC-MS/MS analysis; assay type: ADME, organism-based; conditions: in vivo, time 0.25-24 hrs
[11] = Half life in Sprague-Dawley rat at 10 mg/kg,po administration measured for 0.25 to 24 hrs by LC-MS/MS analysis; assay type: ADME, organism-based; conditions: in vivo, time 0.25-24 hrs
[12] = Cmax in Sprague-Dawley rat at 10 mg/kg,po administration measured for 0.25 to 24 hrs by LC-MS/MS analysis; assay type: ADME, organism-based; conditions: in vivo, time 0.25-24 hrs
[13] = target: Cyclin-dependent kinase 9 (Homo sapiens, UniProt P50750); assay: Inhibition of human CDK9 at 100 nM by kinase profiling assay relative to control
[14] = target: Glycogen synthase kinase-3 beta (Homo sapiens) (UniProt P49841); assay: Inhibition of human GSK3beta at 100 nM by kinase profiling assay relative to control
[15] = target: Rho-associated protein kinase 1 (Homo sapiens) (UniProt Q13464); assay: Inhibition of human ROCK1 at 100 nM by kinase profiling assay relative to control
HCT-116 [16] = assay: Inhibition of colony formation in human HCT-116 cells assessed as reduction in colony number incubated for 14 days by crystal violet staining assay; assay type: functional, cell-based; conditions: time 14.0 day
HCT-116 [17] = assay: Induction of apoptosis in human HCT-116 cells assessed as increase in late apoptotic cells incubated for 48 hrs by Annexin V-FITC/PI staining based flow cytometric analysis; assay type: functional, cell-based
HCT-116 [18] = assay: Induction of apoptosis in human HCT-116 cells assessed as effect on RNA polymerase II expression at 25 to 400 nM incubated for 48 hrs by Western blotting analysis; assay type: functional, cell-based; conditions: dose 25-400 nM
HCT-116 [19] = assay: Induction of apoptosis in human HCT-116 cells assessed as downregulation of RNA polymerase II phosphorylation at Ser2 residue at 25 to 400 nM incubated for 48 hrs by Western blotting analysis; assay type: functional, cell-based; conditions: dose 25-400 nM
HCT-116 [20] = assay: Antitumor activity against human HCT-116 cells xenografted in BALB/c mouse assessed as downregulation of PARP expression at 25 mg/kg,po administrated once daily for 3 weeks by Western blotting analysis; assay type: functional, organism-based
[21] = Toxicity in BALB/c mouse xenografted with human HCT-116 cells assessed as heart morphological change at 25 mg/kg,po administrated once daily for 3 weeks by hematoxylin and eosin staining based microscopic analysis; assay type: organism-based; conditions: in vivo, 504 h
[22] = Toxicity in BALB/c mouse xenografted with human HCT-116 cells assessed as kidney morphological change at 50 mg/kg,po administrated once daily for 3 weeks by hematoxylin and eosin staining based microscopic analysis; assay type: organism-based; conditions: in vivo, 504 h

Sequence of Rho-associated protein kinase 1 (Homo sapiens) (Q13464 2-1354 limits assumed): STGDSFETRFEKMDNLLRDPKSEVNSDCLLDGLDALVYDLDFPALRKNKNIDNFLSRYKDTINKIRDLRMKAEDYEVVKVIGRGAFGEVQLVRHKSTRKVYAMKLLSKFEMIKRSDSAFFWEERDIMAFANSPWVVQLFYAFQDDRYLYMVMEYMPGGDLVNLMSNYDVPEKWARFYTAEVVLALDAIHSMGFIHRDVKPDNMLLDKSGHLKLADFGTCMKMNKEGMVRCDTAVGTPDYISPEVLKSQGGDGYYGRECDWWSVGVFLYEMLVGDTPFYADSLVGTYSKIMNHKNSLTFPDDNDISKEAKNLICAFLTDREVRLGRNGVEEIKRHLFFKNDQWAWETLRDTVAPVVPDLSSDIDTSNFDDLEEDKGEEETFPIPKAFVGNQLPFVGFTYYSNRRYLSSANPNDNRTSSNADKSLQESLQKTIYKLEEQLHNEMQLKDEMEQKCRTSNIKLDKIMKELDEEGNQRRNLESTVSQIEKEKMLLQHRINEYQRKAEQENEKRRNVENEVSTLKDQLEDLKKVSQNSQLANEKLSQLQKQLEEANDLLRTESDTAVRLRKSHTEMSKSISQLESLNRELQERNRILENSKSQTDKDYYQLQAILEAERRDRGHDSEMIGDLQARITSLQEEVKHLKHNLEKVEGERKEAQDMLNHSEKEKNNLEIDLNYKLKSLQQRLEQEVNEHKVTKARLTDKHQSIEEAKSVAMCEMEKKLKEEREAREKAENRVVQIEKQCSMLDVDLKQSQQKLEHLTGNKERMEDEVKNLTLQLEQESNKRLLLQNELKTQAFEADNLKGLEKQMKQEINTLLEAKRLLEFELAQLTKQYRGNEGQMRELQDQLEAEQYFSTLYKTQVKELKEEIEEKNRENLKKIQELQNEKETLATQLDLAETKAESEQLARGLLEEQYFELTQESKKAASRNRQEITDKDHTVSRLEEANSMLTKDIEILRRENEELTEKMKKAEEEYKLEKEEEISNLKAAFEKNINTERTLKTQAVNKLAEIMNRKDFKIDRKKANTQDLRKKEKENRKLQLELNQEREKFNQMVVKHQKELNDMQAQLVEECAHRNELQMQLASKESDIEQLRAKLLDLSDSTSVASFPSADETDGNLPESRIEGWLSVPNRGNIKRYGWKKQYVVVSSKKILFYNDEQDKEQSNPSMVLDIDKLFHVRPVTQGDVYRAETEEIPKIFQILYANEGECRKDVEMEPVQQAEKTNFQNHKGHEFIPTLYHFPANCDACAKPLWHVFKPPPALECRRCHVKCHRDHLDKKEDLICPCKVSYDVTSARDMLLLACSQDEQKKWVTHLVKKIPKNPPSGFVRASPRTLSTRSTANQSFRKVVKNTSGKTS
Sequence of Cyclin-dependent kinase 4 (P11802 whole entry): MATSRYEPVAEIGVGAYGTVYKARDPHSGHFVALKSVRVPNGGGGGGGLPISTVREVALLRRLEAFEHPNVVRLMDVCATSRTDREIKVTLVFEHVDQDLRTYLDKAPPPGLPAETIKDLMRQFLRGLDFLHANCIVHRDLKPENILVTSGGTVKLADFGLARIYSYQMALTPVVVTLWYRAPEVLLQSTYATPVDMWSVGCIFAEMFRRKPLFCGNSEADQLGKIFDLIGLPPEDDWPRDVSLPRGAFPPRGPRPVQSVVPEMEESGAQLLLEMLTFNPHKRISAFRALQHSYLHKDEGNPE
Sequence of Cyclin-dependent kinase 9 (P50750 whole entry): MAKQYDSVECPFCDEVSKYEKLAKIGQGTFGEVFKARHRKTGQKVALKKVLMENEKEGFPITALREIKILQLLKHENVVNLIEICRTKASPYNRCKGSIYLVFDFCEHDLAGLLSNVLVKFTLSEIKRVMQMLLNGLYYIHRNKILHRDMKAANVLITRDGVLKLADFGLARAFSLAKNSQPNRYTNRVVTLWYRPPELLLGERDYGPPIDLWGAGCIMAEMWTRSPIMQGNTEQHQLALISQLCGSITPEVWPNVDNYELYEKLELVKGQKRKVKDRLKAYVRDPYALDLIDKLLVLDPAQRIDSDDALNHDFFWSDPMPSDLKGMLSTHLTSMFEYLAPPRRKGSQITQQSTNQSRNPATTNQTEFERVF
Sequence of Glycogen synthase kinase-3 beta (Homo sapiens) (P49841 whole entry, looked up): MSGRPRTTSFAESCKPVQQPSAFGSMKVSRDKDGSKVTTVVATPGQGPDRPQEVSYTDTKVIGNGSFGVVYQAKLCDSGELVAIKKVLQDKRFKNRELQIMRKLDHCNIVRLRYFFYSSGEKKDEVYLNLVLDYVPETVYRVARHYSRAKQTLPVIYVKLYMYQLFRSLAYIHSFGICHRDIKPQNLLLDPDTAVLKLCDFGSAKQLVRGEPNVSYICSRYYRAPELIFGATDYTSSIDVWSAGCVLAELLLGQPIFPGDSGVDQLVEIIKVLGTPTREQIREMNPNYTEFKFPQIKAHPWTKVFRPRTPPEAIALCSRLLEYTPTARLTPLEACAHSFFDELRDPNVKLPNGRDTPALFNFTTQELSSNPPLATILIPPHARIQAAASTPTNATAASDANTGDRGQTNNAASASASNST

MRT last [1]: 1.48 h | MRT inf [2]: 1.77 h | IC50 [3]: > 500 nM | IC50 [4]: > 500 nM | half-life at 100 µM [5]: 0.42 h | Tmax [6]: 4.98 min | Cmax [7]: 358 ng/mL | C0 [8]: 459 ng/mL | AUC(0-t) [9]: 361 ng·h/mL | bioavailability [10]: 12.3% | half-life [11]: 5.28 h | Cmax [12]: 39 ng/mL | inhibition [13]: > 90% | inhibition [14]: < 50% | inhibition [15]: < 50%
Compound: CC(C)n1nnc2ccc(-c3ccnc(Nc4cc(C(=O)N5CCCN(C)CC5)ccn4)c3)cc21
inhibition (HCT-116 [16]): Dose-Dependent Effect | Activity (HCT-116 [17]): Dose-Dependent Effect | Activity (HCT-116 [18]): inactive | Activity (HCT-116 [19]): Active | Activity (HCT-116 [20]): Active | Activity [21]: Non-Toxic | Activity [22]: Non-Toxic

From ChEMBL document CHEMBL5518230, “Identification of a Novel Selective CDK9 Inhibitor for the Treatment of CRC: Design, Synthesis, and Biological Activity Evaluation” (J Med Chem, 2024)
